Test results from patent US8470771B2, “Method and medicament for inhibiting the infection of influenza virus” (priority 2007, dated 2013).
Marks after values point to notes of the source that are not given here.

Columns and labels:
[1] = test system: 3 subtypes of virus i.e. H5N1, H6N1 and H9N2; details: read-out: 50% effect concentration (EC50); cited from earlier work
[2] = test system: QH-WSN virus (avian influenza virus H5N1); details: for IC50: QH-WSN virus (avian influenza virus); for Inhibitory rates (%) of QH-WSN: QH-WSN virus (avian influenza virus, 200 μM)
[3] = test system: JX virus (human influenza virus H3N2); details: for IC50: JX virus (human influenza virus); for Inhibitory rates (%) of JX: JX virus (human influenza virus, 200 μM)
[4] = test system: WSN virus (human influenza virus H1N1); details: for IC50: WSN virus (human influenza virus); for Inhibitory rates (%) of WSN: WSN virus (human influenza virus, 100 μM)
influenza virus = assay type: cell-based

CC(=O)N[C@H]1[C@H]([C@H](O)[C@H](O)CO)OC(C(=O)O)=C[C@@H]1N=C(N)N [Zanamivir]
EC50 [1]: 8.5 to 14 µM

CC[C@H](C)[C@H](NC(=O)[C@H](C)NC(=O)[C@H](CCCCN)NC(=O)[C@H](CCC(N)=O)NC(=O)[C@@H](NC(=O)[C@H](CO)NC(=O)[C@H](CCC(=O)O)NC(=O)[C@@H](N)CCCCN)[C@@H](C)O)C(=O)N[C@@H](CC(=O)O)C(=O)NCC(=O)N[C@H](C(=O)N[C@H](C(=O)N[C@@H](C)C(=O)N[C@@H](C)C(=O)N[C@@H](C)C(=O)N[C@@H](C)C(=O)N[C@@H](CC(N)=O)C(=O)N[C@@H](CCCCN)C(=O)N[C@H](C(=O)N[C@@H](CC(N)=O)C(=O)N[C@@H](CO)C(=O)N[C@H](C(=O)N[C@H](C(=O)N[C@@H](CC(=O)O)C(=O)N[C@@H](CCCCN)C(=O)O)[C@@H](C)CC)[C@@H](C)CC)C(C)C)[C@@H](C)O)C(C)C [HR1-2]
IC50 [2]: 104 ± 28.6 µM
IC50 [3]: 112 ± 19.5 µM
IC50 [4]: 110 ± 28.2 µM

CC[C@H](C)[C@H](NC(=O)[C@H](CCCCN)NC(=O)[C@H](CCC(N)=O)NC(=O)[C@@H](NC(=O)[C@H](CO)NC(=O)[C@H](CCC(=O)O)NC(=O)[C@@H](N)CCCCN)[C@@H](C)O)C(=O)N[C@H](C(=O)N[C@@H](CC(=O)O)C(=O)NCC(=O)N[C@H](C(=O)N[C@H](C(=O)N[C@@H](CC(N)=O)C(=O)N[C@@H](CCCCN)C(=O)N[C@H](C(=O)N[C@@H](CC(N)=O)C(=O)N[C@@H](CO)C(=O)N[C@H](C(=O)N[C@H](C(=O)N[C@@H](CC(=O)O)C(=O)N[C@@H](CCCCN)C(=O)O)[C@@H](C)CC)[C@@H](C)CC)C(C)C)[C@@H](C)O)C(C)C)[C@@H](C)CC [HR1-1]
IC50 [2]: 32.7 ± 6.5 µM
IC50 [3]: 38.2 ± 7.8 µM
IC50 [4]: 29.3 ± 5.7 µM

CC[C@H](C)[C@H](NC(=O)[C@H](CCCNC(=N)N)NC(=O)[C@@H](N)CCCNC(=N)N)C(=O)N[C@@H](CCC(=O)O)C(=O)N[C@@H](CC(N)=O)C(=O)N[C@@H](CC(C)C)C(=O)N[C@@H](CC(N)=O)C(=O)N[C@@H](CCCCN)C(=O)N[C@@H](CCCCN)C(=O)N[C@@H](CCSC)C(=O)N[C@@H](CCC(=O)O)C(=O)N[C@@H](CC(=O)O)C(=O)NCC(=O)N[C@@H](Cc1ccccc1)C(=O)N[C@@H](CC(C)C)C(=O)N[C@@H](CC(=O)O)C(=O)N[C@H](C(=O)N[C@@H](Cc1c[nH]c2ccccc12)C(=O)N[C@H](C(=O)N[C@@H](Cc1ccc(O)cc1)C(=O)O)[C@@H](C)O)C(C)C [HR2A]
Inhibitory rates (%) of QH-WSN [2]: 56.9* %
Inhibitory rates (%) of JX [3]: 51.4* %
Inhibitory rates (%) of WSN [4]: 42.0** %

CC(C)C[C@H](NC(=O)[C@H](CCCNC(=N)N)NC(=O)[C@@H](NC(=O)[C@H](CCCCN)NC(=O)[C@H](CC(=O)O)NC(=O)[C@H](Cc1ccc(O)cc1)NC(=O)[C@H](CC(C)C)NC(=O)[C@H](CC(N)=O)NC(=O)[C@H](CCCCN)NC(=O)[C@@H](NC(=O)[C@H](CC(N)=O)NC(=O)[C@H](CO)NC(=O)[C@H](CC(=O)O)NC(=O)[C@H](Cc1c[nH]cn1)NC(=O)[C@@H](N)Cc1ccccc1)C(C)C)C(C)C)C(=O)N[C@@H](CCC(N)=O)C(=O)O [HR2C]
Inhibitory rates (%) of QH-WSN [2]: 53.1* %
Inhibitory rates (%) of JX [3]: 17.1* %
Inhibitory rates (%) of WSN [4]: 29.6** %

KLPDDFMGCV
inhibition of the infection of influenza virus (influenza virus): did not inhibit the infection of influenza virus

CSCC[C@H](NC(=O)[C@H](CC(C)C)NC(=O)[C@@H](NC(=O)[C@H](CC(C)C)NC(=O)[C@H](CC(C)C)NC(=O)[C@H](CCC(=O)O)NC(=O)[C@H](C)NC(=O)[C@@H](N)CC(N)=O)C(C)C)C(=O)N[C@@H](CCC(=O)O)C(=O)N[C@@H](CC(N)=O)C(=O)N[C@@H](CCC(=O)O)C(=O)N[C@@H](CCCNC(=N)N)C(=O)N[C@H](C(=O)N[C@@H](CC(C)C)C(=O)N[C@@H](CC(=O)O)C(=O)N[C@@H](Cc1ccccc1)C(=O)N[C@@H](Cc1c[nH]cn1)C(=O)N[C@@H](CC(=O)O)C(=O)N[C@@H](CO)C(=O)N[C@@H](CC(N)=O)C(=O)N[C@H](C(=O)N[C@@H](CCCCN)C(=O)N[C@@H](CC(N)=O)C(=O)O)C(C)C)[C@@H](C)O [HR2B]
Inhibitory rates (%) of QH-WSN [2]: 63.8* %
Inhibitory rates (%) of JX [3]: 15.2* %
Inhibitory rates (%) of WSN [4]: 43.0** %
